Assay results as given in ChEMBL document CHEMBL1201862, “PubChem BioAssay data set” (2004).
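96-well plates; 48 h exposure; 5 concentrations. Endpoints by linear interpolation between flanking doses. Not reached: highest tested concentration assigned. GI50 marks 50% less growth.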 Calls of active or inactive are those of the source. No stated cut-off is given here; in the data, active = GI50 up to about 1.1 µM and inactive = higher.

Columns and labels:
Assay in all cases: DTP human tumour cell line panel, 48 h
[1] = test system: A498
[2] = test system: A549
[3] = test system: ACHN
[4] = test system: CAKI-1
[5] = test system: HCC 2998
[6] = test system: HCT-116
[7] = test system: HCT-15
[8] = test system: HL-60
[9] = test system: KM12
[10] = test system: LOX IMVI
[11] = test system: M14
[12] = test system: MOLT-4
[13] = test system: Malme-3M
[14] = test system: NCI-H522
[15] = test system: OVCAR-3
[16] = test system: OVCAR-4
[17] = test system: RPMI-8226
[18] = test system: SN12C
[19] = test system: U-251

Structure (SMILES)	GI50 [1]	GI50 [2]	GI50 [3]	GI50 [4]	GI50 [5]	GI50 [6]	GI50 [7] [µM]	GI50 [8]	GI50 [9]	GI50 [10]	GI50 [11]	GI50 [12]	GI50 [13]	GI50 [14]	GI50 [15]	GI50 [16]	GI50 [17]	GI50 [18]	GI50 [19]
CCOP(=O)(OCC)/C(=C/n1c(=S)[nH]c2ccccc21)C(=O)OC	> 100 µM (inactive)	> 100 µM (inactive)	> 100 µM (inactive)	> 100 µM (inactive)	51.9 µM (inactive)	> 100 µM (inactive)	11.7	> 100 µM (inactive)	> 100 µM (inactive)	> 100 µM (inactive)	> 100 µM (inactive)	> 100 µM (inactive)	> 100 µM (inactive)	> 100 µM (inactive)	0.0311 µM (active)	45.1 µM (inactive)	> 100 µM (inactive)	> 100 µM (inactive)	> 100 µM (inactive)
Cc1nnc(N)nc1/C=C\c1ccc(N(C)C)cc1	16.6 µM (inactive)	9.79 µM (inactive)	15 µM (inactive)	–	3.78 µM (inactive)	10.8 µM (inactive)	2.99	3.32 µM (inactive)	12.3 µM (inactive)	4.88 µM (inactive)	27 µM (inactive)	17.6 µM (inactive)	29.2 µM (inactive)	1.68 µM (inactive)	–	26.5 µM (inactive)	9.86 µM (inactive)	> 100 µM (inactive)	> 27.1 µM (inactive)
COC(=O)C(=O)CC(=O)c1cccc(OC)c1	> 100 µM (inactive)	> 100 µM (inactive)	> 100 µM (inactive)	> 100 µM (inactive)	> 100 µM (inactive)	> 100 µM (inactive)	> 100	> 100 µM (inactive)	> 100 µM (inactive)	> 100 µM (inactive)	> 100 µM (inactive)	> 100 µM (inactive)	> 100 µM (inactive)	–	> 100 µM (inactive)	> 100 µM (inactive)	> 100 µM (inactive)	> 100 µM (inactive)	> 100 µM (inactive)
CN(CCN(C)C(=O)CCn1ccc(=O)[nH]c1=O)C(=O)CCn1ccc(=O)[nH]c1=O	–	> 100 µM (inactive)	> 100 µM (inactive)	–	> 100 µM (inactive)	> 100 µM (inactive)	> 100	> 100 µM (inactive)	> 100 µM (inactive)	> 100 µM (inactive)	> 100 µM (inactive)	> 100 µM (inactive)	> 100 µM (inactive)	> 100 µM (inactive)	> 100 µM (inactive)	> 100 µM (inactive)	> 100 µM (inactive)	> 100 µM (inactive)	> 100 µM (inactive)
CCOC(=O)C1=C(C(=O)c2ccc(C)cc2)C(c2cccc([N+](=O)[O-])c2)C(C(=O)c2ccc(C)cc2)=C(C(=O)OCC)N1	–	24.2 µM (inactive)	15.1 µM (inactive)	19.5 µM (inactive)	–	6.75 µM (inactive)	0.853	29.8 µM (inactive)	12.8 µM (inactive)	17.6 µM (inactive)	18.1 µM (inactive)	28.6 µM (inactive)	15.1 µM (inactive)	15.6 µM (inactive)	15.5 µM (inactive)	25.4 µM (inactive)	–	17.6 µM (inactive)	13.1 µM (inactive)
O=C(/C=N/O)Nc1ccc(Cl)c(I)c1	–	26.9 µM (inactive)	16.7 µM (inactive)	14.3 µM (inactive)	14.1 µM (inactive)	12.9 µM (inactive)	14.4	19.3 µM (inactive)	20.6 µM (inactive)	11.1 µM (inactive)	18.6 µM (inactive)	19.6 µM (inactive)	25.5 µM (inactive)	14.7 µM (inactive)	13.6 µM (inactive)	28.6 µM (inactive)	20 µM (inactive)	22.5 µM (inactive)	16.1 µM (inactive)
O=C(CC1(O)C(=O)Nc2ccc([N+](=O)[O-])cc21)c1ccc2ccccc2c1 (stereo not given)	> 100 µM (inactive)	> 100 µM (inactive)	> 100 µM (inactive)	–	> 100 µM (inactive)	> 100 µM (inactive)	> 100	> 100 µM (inactive)	> 100 µM (inactive)	–	> 100 µM (inactive)	> 100 µM (inactive)	> 100 µM (inactive)	65.6 µM (inactive)	> 100 µM (inactive)	> 100 µM (inactive)	> 100 µM (inactive)	> 100 µM (inactive)	> 100 µM (inactive)
Cc1csc2nc3c(cnn3C)c(=S)n12	–	> 100 µM (inactive)	44.5 µM (inactive)	34.3 µM (inactive)	> 100 µM (inactive)	> 100 µM (inactive)	71.4	–	> 100 µM (inactive)	51.6 µM (inactive)	> 100 µM (inactive)	> 100 µM (inactive)	> 100 µM (inactive)	11 µM (inactive)	> 100 µM (inactive)	> 100 µM (inactive)	> 100 µM (inactive)	24.2 µM (inactive)	95.3 µM (inactive)
COc1cc(OC)c2ssc3c(OC)cc(OC)c4ssc1c2-c43	> 100 µM (inactive)	> 100 µM (inactive)	> 100 µM (inactive)	> 100 µM (inactive)	> 100 µM (inactive)	> 100 µM (inactive)	> 100	–	> 100 µM (inactive)	> 100 µM (inactive)	> 100 µM (inactive)	> 100 µM (inactive)	> 100 µM (inactive)	> 100 µM (inactive)	> 100 µM (inactive)	> 100 µM (inactive)	–	> 100 µM (inactive)	> 100 µM (inactive)
O=c1c2ccccc2c2c1c1c3ccccc3c(=O)c1c1c3ccccc3c(=O)c21	> 100 µM (inactive)	> 100 µM (inactive)	> 100 µM (inactive)	> 100 µM (inactive)	> 100 µM (inactive)	> 100 µM (inactive)	> 100	> 100 µM (inactive)	> 100 µM (inactive)	> 100 µM (inactive)	> 100 µM (inactive)	> 100 µM (inactive)	> 100 µM (inactive)	> 100 µM (inactive)	> 100 µM (inactive)	–	> 100 µM (inactive)	> 100 µM (inactive)	> 100 µM (inactive)
Nc1nc(N)c2nc(CNc3ccc(C(=O)NC(CCC(=O)O)C(=O)O)cc3F)cnc2n1 (stereo not given)	< 0.01 µM (active)	< 0.01 µM (active)	< 0.01 µM (active)	< 0.01 µM (active)	–	< 0.01 µM (active)	< 0.01	< 0.01 µM (active)	< 0.01 µM (active)	< 0.01 µM (active)	< 0.01 µM (active)	< 0.01 µM (active)	–	< 0.01 µM (active)	45.1 µM (inactive)	> 81.7 µM (inactive)	< 0.01 µM (active)	< 0.01 µM (active)	< 0.01 µM (active)
CCCCCCCCCCCCCCCCNc1cccc2ccccc12	–	> 100 µM (inactive)	> 100 µM (inactive)	–	> 100 µM (inactive)	> 100 µM (inactive)	> 100	> 100 µM (inactive)	> 100 µM (inactive)	> 100 µM (inactive)	> 100 µM (inactive)	> 100 µM (inactive)	> 100 µM (inactive)	> 100 µM (inactive)	> 100 µM (inactive)	–	> 100 µM (inactive)	> 100 µM (inactive)	> 100 µM (inactive)
CN1CN(c2ccccc2)C2(CCN(CCc3csc4ccccc34)CC2)C1=O	–	24.2 µM (inactive)	> 10 µM (inactive)	11.2 µM (inactive)	7.21 µM (inactive)	11.3 µM (inactive)	10.7	9.38 µM (inactive)	12.6 µM (inactive)	13.7 µM (inactive)	16.7 µM (inactive)	10.3 µM (inactive)	15 µM (inactive)	15.9 µM (inactive)	12.1 µM (inactive)	–	6.84 µM (inactive)	15.6 µM (inactive)	14.5 µM (inactive)
CCO/N=C(/N)c1ncn(Cc2ccccc2)c1NCC(OCC)OCC	> 100 µM (inactive)	> 100 µM (inactive)	> 100 µM (inactive)	> 100 µM (inactive)	> 100 µM (inactive)	> 100 µM (inactive)	> 100	–	> 100 µM (inactive)	> 100 µM (inactive)	> 100 µM (inactive)	> 100 µM (inactive)	> 100 µM (inactive)	> 100 µM (inactive)	> 100 µM (inactive)	–	> 100 µM (inactive)	> 100 µM (inactive)	> 100 µM (inactive)
O=[N+]([O-])c1nccn1CC(O)CN1CC1 (stereo not given)	> 100 µM (inactive)	> 100 µM (inactive)	29.1 µM (inactive)	39 µM (inactive)	–	47.6 µM (inactive)	58.6	24.8 µM (inactive)	66.8 µM (inactive)	–	> 100 µM (inactive)	32 µM (inactive)	> 100 µM (inactive)	21.5 µM (inactive)	25.5 µM (inactive)	74.5 µM (inactive)	49.4 µM (inactive)	61.8 µM (inactive)	35.6 µM (inactive)
CN(C)CC(C)(C)C(/C=C/c1ccccc1)=N\Nc1ccccc1	21.8 µM (inactive)	0.385 µM (active)	0.132 µM (active)	–	–	0.705 µM (active)	0.309	1.16 µM (inactive)	0.579 µM (active)	0.296 µM (active)	5.01 µM (inactive)	0.451 µM (active)	10.4 µM (inactive)	6.14 µM (inactive)	1.44 µM (inactive)	1.06 µM (active)	1.68 µM (inactive)	1.71 µM (inactive)	0.306 µM (active)
CC1OC(=O)N2CCC=CC12 (stereo not given)	> 100 µM (inactive)	> 100 µM (inactive)	> 100 µM (inactive)	–	–	> 100 µM (inactive)	> 100	–	> 100 µM (inactive)	> 100 µM (inactive)	–	> 100 µM (inactive)	> 100 µM (inactive)	> 100 µM (inactive)	> 100 µM (inactive)	> 100 µM (inactive)	> 100 µM (inactive)	> 100 µM (inactive)	> 100 µM (inactive)
